{
  "source": "paper PMC6934184",
  "about": "“Selective DNA-PKcs inhibition extends the therapeutic index of localized radiotherapy and chemotherapy” (The Journal of Clinical Investigation, 2019)",
  "target": "T1, DDR2 N456S (Homo sapiens, UniProt Q16832, N456S)",
  "T1 construct": "purchased Thermo Fisher Scientific (Life Technologies) SelectScreen",
  "T1 sequence (Q16832 22-855 N456S)": "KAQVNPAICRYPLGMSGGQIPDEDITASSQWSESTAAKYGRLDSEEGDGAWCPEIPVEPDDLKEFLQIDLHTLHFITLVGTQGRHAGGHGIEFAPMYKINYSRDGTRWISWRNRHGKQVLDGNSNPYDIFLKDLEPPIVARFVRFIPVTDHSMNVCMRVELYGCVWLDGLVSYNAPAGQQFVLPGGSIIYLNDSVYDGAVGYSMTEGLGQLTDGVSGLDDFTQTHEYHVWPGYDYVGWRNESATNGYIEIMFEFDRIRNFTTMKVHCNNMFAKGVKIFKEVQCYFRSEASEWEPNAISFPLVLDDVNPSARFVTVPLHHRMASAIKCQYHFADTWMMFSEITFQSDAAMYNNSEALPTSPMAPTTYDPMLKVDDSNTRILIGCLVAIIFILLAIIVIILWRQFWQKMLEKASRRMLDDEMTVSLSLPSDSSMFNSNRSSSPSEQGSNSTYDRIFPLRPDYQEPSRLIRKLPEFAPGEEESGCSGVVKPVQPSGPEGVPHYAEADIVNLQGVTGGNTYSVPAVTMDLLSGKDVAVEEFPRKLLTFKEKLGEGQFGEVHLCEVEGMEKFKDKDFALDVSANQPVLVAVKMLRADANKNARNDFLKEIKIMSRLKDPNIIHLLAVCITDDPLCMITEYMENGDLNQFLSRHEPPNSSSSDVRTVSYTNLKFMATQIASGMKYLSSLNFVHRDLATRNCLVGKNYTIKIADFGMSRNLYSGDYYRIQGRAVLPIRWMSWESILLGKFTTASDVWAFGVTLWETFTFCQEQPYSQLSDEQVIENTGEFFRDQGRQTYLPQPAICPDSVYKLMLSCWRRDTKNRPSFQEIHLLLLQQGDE",
  "assay": "SelectScreen LanthaScreen",
  "type": "binding",
  "details": "read-out: % displacement",
  "outline": "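Percent values come from Thermo SelectScreen profiling of NU5455, combining activity and binding assays. CSF1R was run in Z'LYTE format at Km app ATP, and CAMK1 in Adapta format with ATP listed at 10.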",
  "data": [
    {"compound": "CN(C(=O)CN1CCOCC1)c1ccc2sc3c(-c4cccc5c(=O)cc(N6CC7CCC(C6)O7)oc45)cccc3c2c1", "note": "[NU5455]", "values": [
      {"measurement": "inhibition at 1 µM", "value": 0.5, "unit": "%"}
    ]}
  ]
}
